Test results: patent US20240207219A1, “Artemisia anti-bacterial compositions and methods of use for inhibition of cells of Mycobacterium species” (priority 2022, published 2024)

Tests used:
[1] = tested on: Mtb; details: in vitro; cited from earlier work
[2] = tested on: Mtb in hypoxia-induced growth arrest; assay: Bactericidal activity of HAB9 in hypoxic growth conditions (variation of the Wayne model)
[3] = tested on: aerobically growing Mtb; details: aerobic growth

| SMILES | activity against Mtb under nutrient starvation or progressive oxygen depletion [1] | bactericidal activity in hypoxia-induced growth arrest ([2]; hypoxic, non-replicating Mtb) | anti-mycobacterial activity in limiting oxygen compared to aerobically grown cells ([2]; limiting oxygen versus aerobic) | bactericidal activity against aerobically growing Mtb [3] |
| --- | --- | --- | --- | --- |
| NNC(=O)c1ccncc1 [isoniazid] | little or no activity | – | – | – |
| COc1ccc(-c2cc(=O)c3c(O)cc(OC)cc3o2)cc1 [Compound 1, 5-hydroxy-7-methoxy-2-(4-methoxyphenyl)chromen-4-one] | – | substantially reduced viable cultures of Mtb | enhanced | substantially reduced viable cultures of Mtb |
